{
  "source": "patent US20240207216A1",
  "about": "“COMPOSITIONS AND METHOD FOR TREATING GUT PERMEABILITY CAUSED BY HYDROGEN SULFIDE PRODUCING BACTERIA” (UNM RAINFOREST INNOVATIONS, priority 2022, published 2024)",
  "assay_type_in_all_cases": "cell-based, murine",
  "key": {"iNOS": {"tested_on": "iNOS", "test": "DSV-induced iNOS expression, Western blot in RAW cells", "details": "1 h before DSV 4 h, DSV alone 23.54±5.39", "description": "(§1) RAW 264.7 murine macrophage-like cells were grown in DMEM+10% FBS without any use of antibiotics or antimycotics. Cells were grown at 37° C. in a humidified incubator with 5% CO2. Prior to the day of infection, 8×10^5 cells were plated in a six-well plate and infected with DSV at multiplicity of infection 20 (MOI 20) for various times. For drug treatments, cells were incubated with LY294002 at 10 μM or 50 μM for one hour followed by DSV infection for 30 minutes or four hours. For TL2-C29 treatment, cells were incubated with the inhibitor at 200 μM for three hours followed by infection with DSV for four hours.\n(§2) Cells were lysed in Lysis buffer containing protease and phosphatase inhibitors (Thermo Fisher Scientific, Inc., Waltham, MA) for 20 minutes at 4° C. Lysates were centrifuged at 12,000 rpm for five mins at 4° C. and supernatants were collected. Protein concentration in the supernatants was determined with Bradford reagent (Bio-Rad Laboratories, Inc., Hercules, CA). 50 μg of protein samples were run on SDS-PAGE (4-20% tris-glycine) and transferred to nitrocellulose membranes. Membranes were blocked in 5% milk in PBS-T (0.1% Tween 20) for 30 minutes followed by overnight incubation in primary antibodies in cold room. All antibodies except iNOS were purchased from Cell Signaling Technology (Danvers, MA): Actin (4970), p-AktS473(4060), p-Akt T308(13038), Akt (9272), p-P70S6K (9205), P70S6K (2708, TNF-α (19948). iNOS antibody was purchased from Abcam (Cambridge United Kingdom). Antibodies were diluted as recommended by the manufacturer. The following day, blots were washed with PBS-T and incubated with secondary antibodies (Cell Signaling Technology, Danvers, MA) at room temperature for one hour (dilution of 1:2000) and developed using enhanced chemiluminescence HRP signal (Thermo Fisher Scientific, Inc., Waltham, MA).\n(§3) All graphs were generated using PRISM 9.4.1 GraphPad Software Inc., San Diego, CA). Data is plotted as Mean±SEM relative to control. Each experiment was conducted at least three independent times. […]"}, "secreted TNF-α": {"tested_on": "secreted TNF-α", "test": "DSV-induced secreted TNF-α, Western blot of RAW cell culture supernatant", "details": "1 h before DSV 4 h, DSV alone 18.73±6.21", "description": "FIG. 12. LY294002 inhibits DSV-induced activation of PI3K/Akt/TNF pathway. (A) RAW cells were treated with LY at either 10 μM or 50 μM for one hour before infection with DSV for four hours. Cells were lysed and protein lysate was prepared. Fifty μg of protein lysate was separated on SDS-PAGE and analyzed for p-Akt, Akt, TNF, iNOS, p-p70S6K, and total p70S6K by Western blotting. Actin was used as a loading control. (B) Quantification of p-Akt-Akt Western blot. (C) Quantification of p-P70/P70 Western blot. (D) Quantification of TNF-α/actin Western blot. (E) Post-infection, RAW cell culture supernatant was collected and proteins were precipitated using ethanol precipitation. Proteins were resuspended in PBS and 50 μg of proteins were loaded on SDS-PAGE and secreted TNF-α was detected using TNF-α antibody. Actin was used as a loading control.\nas §1\n(§4) Cells were lysed in Lysis buffer containing protease and phosphatase inhibitors (Thermo Fisher Scientific, Inc., Waltham, MA) for 20 minutes at 4° C. Lysates were centrifuged at 12,000 rpm for five mins at 4° C. and supernatants were collected. Protein concentration in the supernatants was determined with Bradford reagent (Bio-Rad Laboratories, Inc., Hercules, CA). 50 μg of protein samples were run on SDS-PAGE (4-20% tris-glycine) and transferred to nitrocellulose membranes. Membranes were blocked in 5% milk in PBS-T (0.1% Tween 20) for 30 minutes followed by overnight incubation in primary antibodies in cold room. […]"}, "TNF-α": {"tested_on": "TNF-α", "test": "DSV-induced cellular TNF-α expression, Western blot in RAW cells", "details": "1 h before DSV 4 h, DSV alone 37.01±4.28", "description": "as §1, §2, §3"}, "p-p70S6K": {"tested_on": "p-p70S6K", "test": "DSV-induced p-P70S6K, Western blot in RAW cells", "details": "1 h before DSV 4 h, DSV alone 1.96±0.20", "description": "as §1, §4"}, "p-Akt/Akt": {"tested_on": "p-Akt/Akt", "test": "DSV-induced Akt phosphorylation, Western blot in RAW cells", "details": "1 h before DSV 4 h, DSV alone 4.88±1.31", "description": "as §1, §2, §3"}, "p-p65 NF-κB": {"tested_on": "p-p65 NF-κB", "test": "DSV-induced phospho-p65 NF-κB, Western blot in RAW cells", "details": "50 μM pre-treatment, DSV 30 minutes; DSV alone 3.54±0.59", "description": "FIG. 13. LY294002 inhibits DSV-induced activation of PI3K/Akt/TNF pathway. (A) Quantification of secreted TNF-α. (B) Cells were treated with LY at either 10 μM or 50 μM for one hour before infection with DSV for four hours. Protein lysate was analyzed for iNOS expression. (C) Cells were pretreated with or without LY 50 μM followed by infection with DSV for 30 minutes and protein samples were analyzed for p-p65 NF-κB and total NF-κB. (D) Blots were quantified by analyzing the ratio of p-NF-κB/NF-κB. Values were normalized and compared to control. Data represents Mean±SEM from at least three independent experiments. Values were normalized to control. One-way ANOVA was used to determine the statistical significance. Values were compared to DSV, with a post-hoc Dunnett's test. *p<0.05, **p<0.01, ***p<0.001.\nRAW 264.7 murine macrophage-like cells were grown in DMEM+10% FBS without any use of antibiotics or antimycotics. Cells were grown at 37° C. in a humidified incubator with 5% CO2. […]\nCells were lysed in Lysis buffer containing protease and phosphatase inhibitors (Thermo Fisher Scientific, Inc., Waltham, MA) for 20 minutes at 4° C. […] Protein concentration in the supernatants was determined with Bradford reagent (Bio-Rad Laboratories, Inc., Hercules, CA). […]"}},
  "data": [
    {"smiles": "O=c1cc(N2CCOCC2)oc2c(-c3ccccc3)cccc12", "note": "[LY294002]", "values": [
      {"measurement": "iNOS expression, normalized to control", "setting": "iNOS; 10 μM", "result": "5.45±0.17"},
      {"measurement": "iNOS expression, normalized to control", "setting": "iNOS; 50 μM", "result": "2.28±0.58"},
      {"measurement": "secreted TNF-α, normalized to control", "setting": "secreted TNF-α; 10 μM", "result": "1.45±0.24"},
      {"measurement": "secreted TNF-α, normalized to control", "setting": "secreted TNF-α; 50 μM", "result": "1.34±0.57"},
      {"measurement": "cellular TNF-α/actin, normalized to control", "setting": "TNF-α; 10 μM", "result": "13.42±2.13"},
      {"measurement": "cellular TNF-α/actin, normalized to control", "setting": "TNF-α; 50 μM", "result": "6.044±2.139"},
      {"measurement": "p-P70/P70, normalized to control", "setting": "p-p70S6K; 10 μM", "result": "0.081±0.026"},
      {"measurement": "p-P70/P70, normalized to control", "setting": "p-p70S6K; 50 μM", "result": "0.088±0.029"},
      {"measurement": "p-Akt/Akt, normalized to control", "setting": "p-Akt/Akt; 10 μM", "result": "0.52±0.11"},
      {"measurement": "p-Akt/Akt, normalized to control", "setting": "p-Akt/Akt; 50 μM", "result": "0.40±0.09"},
      {"measurement": "p-NF-κB/NF-κB (p-p65), normalized to control", "setting": "p-p65 NF-κB", "result": "1.91±0.54"}
    ]}
  ]
}
